The target in this experiment is T1, RMgase (recombinant alpha-galactosidase) (Rhizomucor miehei, UniProt H8Y263).
T1 construct: codon-optimised synthetic gene with XPR2 signal peptide at 5' end (vector pINA1312), secreted by Yarrowia lipolytica transformant G82; purified by DEAE-Sepharose for pH/temperature profiles
T1 sequence (H8Y263 18-751): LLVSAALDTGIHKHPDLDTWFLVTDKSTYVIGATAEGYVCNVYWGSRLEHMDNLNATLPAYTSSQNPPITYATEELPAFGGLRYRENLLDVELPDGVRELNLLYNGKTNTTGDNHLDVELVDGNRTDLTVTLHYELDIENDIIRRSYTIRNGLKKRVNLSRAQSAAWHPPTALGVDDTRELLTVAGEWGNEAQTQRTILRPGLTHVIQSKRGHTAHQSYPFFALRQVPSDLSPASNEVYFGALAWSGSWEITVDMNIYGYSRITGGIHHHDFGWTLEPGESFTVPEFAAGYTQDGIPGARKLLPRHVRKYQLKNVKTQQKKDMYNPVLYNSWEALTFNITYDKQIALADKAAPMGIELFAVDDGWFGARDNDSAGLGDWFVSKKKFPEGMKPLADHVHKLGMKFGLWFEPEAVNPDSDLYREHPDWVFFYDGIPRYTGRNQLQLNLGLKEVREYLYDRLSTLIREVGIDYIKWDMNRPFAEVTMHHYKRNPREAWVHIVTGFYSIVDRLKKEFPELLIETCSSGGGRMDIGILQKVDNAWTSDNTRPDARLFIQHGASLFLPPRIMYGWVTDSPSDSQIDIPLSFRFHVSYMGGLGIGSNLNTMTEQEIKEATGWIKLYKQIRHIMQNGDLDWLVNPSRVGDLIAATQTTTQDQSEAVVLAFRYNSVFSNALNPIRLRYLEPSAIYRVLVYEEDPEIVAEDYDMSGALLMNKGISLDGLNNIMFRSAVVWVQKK
In words: sugar hydrolysis, activity of secreted enzyme. In kind it is biochemical.

In the case of `OC[C@H]1O[C@H](OC[C@H]2O[C@H](OC[C@H]3O[C@H](O[C@]4(CO)O[C@H](CO)[C@@H](O)[C@@H]4O)[C@H](O)[C@@H](O)[C@@H]3O)[C@H](O)[C@@H](O)[C@H]2O)[C@H](O)[C@@H](O)[C@H]1O` [stachyose], the “sugar hydrolysis, activity of secreted enzyme” value is “the α-galactosidase activity using pNPG, stachyose, raffinose and melibiose as substrate”.
